Experimental data published in US8895733B2 (Novartis AG, priority 2010, dated 2014).

Target: T1, Nav 1.7 (Homo sapiens, UniProt Q15858)
T1 construct: expressed in transfected cells
Assay: Whole-cell voltage clamp electrophysiology, manual patch clamp (marker b in Table of Examples)
Format: cell-based
Details: marker b: Manual patch clamp data; for IC50: read-out: Nav 1.7 activity
Source text: a.IonWork Quattro data, b=Manual patch clamp data, c=Automated patch clamp data M=Method
Whole-Cell Voltage Clamp Electrophysiology Assay
Patch-clamp electrophysiology is considered the gold standard technique for investigation of ion channel function and pharmacology. Using this method, sodium channel currents can be measured in cells, which stably (or transiently) express the sodium channel subtype of interest. Application of compounds during such experiments provides a functional measure of the activity and potency of compounds affecting the ion channel of interest.
Electrophysiological studies can also be performed using the whole cell configuration of the standard manual patch clamp technique as described in the literature (e.g. Pflugers Arch., 1981, 391(2), 85-100). In this assay, cells that express the voltage-gated sodium channel protein of interest are exposed to the drugs by conventional microperfusion systems, or by a home-built perfusion system. A suitable voltage stimulus protocol is used to activate the voltage-gated sodium channels.
A suitable voltage stimulus protocol is used to activate voltage-gated sodium channel proteins of interest. A typical stimulus protocol may consist of sweeps of sequential voltage pulses starting from a holding potential (i.e. −65 mV), to a more positive and depolarising test pulse potential (i.e. −10 mV) and finally to a more negative and hyperpolarising potential (i.e. −100 mV). According to the biophysics of the voltage-gated ion channel of interest and interest in channel configuration the voltages and durations of the pulses as well as the overall frequency of sweeps applied might vary. Accordingly, a stimulus protocol was designed to assess compounds due to their potential to block NaV1.7 channels primarily in inactivated state. Selectivity over other voltage-gated sodium channel members was assessed by protocols that reflect the native function of the channels (i.e. heart rate or firing of neurons).
Electrophysiological studies can also be performed using the whole cell configuration of the standard manual patch clamp technique as described in the literature (e.g. Pflugers Arch., 1981, 391(2), 85-100). In this assay, cells that express the human voltage-gated sodium channel protein of interest are exposed to the drugs by conventional microperfusion systems, or by a home-built perfusion system. A suitable voltage stimulus protocol is used to activate the voltage-gated sodium channels. A suitable voltage stimulus protocol may consist of sequential voltage pulses from a holding potential, each first hyperpolarizing the cell, then depolarizing the channels for a brief period. A particularly suitable holding potential may be a voltage allowing a fraction of channels to remain in an inactivated state, like −60 mV. A suitable hyperpolarizing voltage and duration may be −120 mV for 100 ms, and depolarization voltage and duration may be −20 mV for 25 ms, and a suitable frequency of pulses may be 0.1 Hz, but may also have other parameters. Accordingly, a stimulus protocol was designed to assess compounds due to their potential to block NaV1.7 channels primarily in inactivated state. Selectivity over other voltage-gated sodium channel members was assessed by protocols that reflect the native function of the channels (i.e. heart rate or firing of neurons).

T1 sequence (Q15858 whole entry): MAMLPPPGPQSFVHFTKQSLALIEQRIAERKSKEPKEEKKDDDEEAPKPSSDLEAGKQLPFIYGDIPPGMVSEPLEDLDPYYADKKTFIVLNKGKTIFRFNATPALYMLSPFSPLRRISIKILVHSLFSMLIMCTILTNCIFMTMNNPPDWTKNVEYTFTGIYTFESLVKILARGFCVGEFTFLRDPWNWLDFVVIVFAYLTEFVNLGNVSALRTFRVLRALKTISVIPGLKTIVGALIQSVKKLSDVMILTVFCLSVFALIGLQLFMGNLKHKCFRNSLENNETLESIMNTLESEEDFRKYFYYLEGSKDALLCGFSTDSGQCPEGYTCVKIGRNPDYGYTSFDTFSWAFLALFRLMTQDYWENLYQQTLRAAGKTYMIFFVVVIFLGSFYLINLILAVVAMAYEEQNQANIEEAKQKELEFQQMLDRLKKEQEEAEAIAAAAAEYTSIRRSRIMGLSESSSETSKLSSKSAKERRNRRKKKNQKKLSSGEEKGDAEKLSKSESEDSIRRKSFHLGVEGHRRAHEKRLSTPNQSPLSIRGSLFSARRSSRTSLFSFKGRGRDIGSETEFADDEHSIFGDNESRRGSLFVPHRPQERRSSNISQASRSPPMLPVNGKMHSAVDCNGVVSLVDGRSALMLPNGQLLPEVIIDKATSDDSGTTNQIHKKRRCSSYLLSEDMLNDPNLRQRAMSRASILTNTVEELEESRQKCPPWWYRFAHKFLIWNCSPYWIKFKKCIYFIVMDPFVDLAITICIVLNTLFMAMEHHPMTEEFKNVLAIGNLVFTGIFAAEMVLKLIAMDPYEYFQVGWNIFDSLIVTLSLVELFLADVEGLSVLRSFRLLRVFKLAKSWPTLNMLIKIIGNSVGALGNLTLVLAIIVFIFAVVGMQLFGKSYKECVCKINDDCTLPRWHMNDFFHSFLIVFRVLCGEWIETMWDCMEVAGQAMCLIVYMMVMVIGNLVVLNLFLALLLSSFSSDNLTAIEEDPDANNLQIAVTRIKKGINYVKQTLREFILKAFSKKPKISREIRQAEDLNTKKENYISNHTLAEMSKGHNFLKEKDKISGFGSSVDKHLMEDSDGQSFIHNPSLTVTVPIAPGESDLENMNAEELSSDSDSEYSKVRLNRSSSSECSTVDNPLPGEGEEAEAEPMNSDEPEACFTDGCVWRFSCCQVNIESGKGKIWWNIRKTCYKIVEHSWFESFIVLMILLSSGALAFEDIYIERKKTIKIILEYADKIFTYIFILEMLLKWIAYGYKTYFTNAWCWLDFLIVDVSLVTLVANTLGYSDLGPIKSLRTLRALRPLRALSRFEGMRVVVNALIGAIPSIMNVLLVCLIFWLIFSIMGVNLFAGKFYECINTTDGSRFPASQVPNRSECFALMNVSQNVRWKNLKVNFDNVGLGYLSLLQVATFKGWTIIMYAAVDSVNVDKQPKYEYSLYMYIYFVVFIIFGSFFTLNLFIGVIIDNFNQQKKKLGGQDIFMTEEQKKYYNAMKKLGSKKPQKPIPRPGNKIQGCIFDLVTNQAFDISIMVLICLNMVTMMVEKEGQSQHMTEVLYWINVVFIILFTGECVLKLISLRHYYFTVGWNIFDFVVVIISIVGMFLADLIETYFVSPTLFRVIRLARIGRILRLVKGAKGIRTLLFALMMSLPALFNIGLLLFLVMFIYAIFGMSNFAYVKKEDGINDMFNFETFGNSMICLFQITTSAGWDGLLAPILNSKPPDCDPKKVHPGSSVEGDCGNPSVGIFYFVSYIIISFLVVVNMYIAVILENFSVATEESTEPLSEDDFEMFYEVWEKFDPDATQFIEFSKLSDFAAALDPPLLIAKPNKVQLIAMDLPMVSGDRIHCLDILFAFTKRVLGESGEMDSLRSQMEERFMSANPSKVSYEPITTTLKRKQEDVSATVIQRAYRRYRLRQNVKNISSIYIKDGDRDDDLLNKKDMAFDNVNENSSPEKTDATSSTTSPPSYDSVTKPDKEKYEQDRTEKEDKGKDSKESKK

SMILES | IC50 | Nav 1.7 activity, % at 10 μM
Nc1nc(Nc2ccccc2)nc(-c2noc(-c3ccco3)n2)n1 [Example 2, 6-(5-Furan-2-yl-[1,2,4]oxadiazol-3-yl)-N-phenyl-[1,3,5]triazine-2,4-diamine] | 91 nM | 
Cc1cccc(N(C)c2nc(N)nc(-c3noc(-c4ccco4)n3)n2)c1 [Example 3, 6-(5-Furan-2-yl-[1,2,4]oxadiazol-3-yl)-N-methyl-N-(3-methylphenyl)-[1,3,5]triazine-2,4-diamine] | 272 nM | 
Cc1ccc(N(C)c2nc(N)nc(-c3noc(-c4ccco4)n3)n2)cc1 [Example 4, 6-(5-Furan-2-yl-[1,2,4]oxadiazol-3-yl)-N-methyl-N-(4-methylphenyl)-[1,3,5]triazine-2,4-diamine] | 661 nM | 
COc1cccc(N(C)c2nc(N)nc(-c3noc(-c4ccco4)n3)n2)c1 [Example 5, 6-(5-Furan-2-yl-[1,2,4]oxadiazol-3-yl)-N-methyl-N-(3-methoxyphenyl)-[1,3,5]triazine-2,4-diamine] | 791 nM | 
COc1ccc(N(C)c2nc(N)nc(-c3noc(-c4ccco4)n3)n2)cc1 [Example 6, 6-(5-Furan-2-yl-[1,2,4]oxadiazol-3-yl)-N-methyl-N-(4-methoxyphenyl)-[1,3,5]triazine-2,4-diamine] | 1940 nM | 
CN(c1ccc(Cl)cc1)c1nc(N)nc(-c2noc(-c3ccco3)n2)n1 [Example 8, 6-(5-Furan-2-yl-[1,2,4]oxadiazol-3-yl)-N-methyl-N-(4-chlorophenyl)-[1,3,5]triazine-2,4-diamine] | 339 nM | 
CN(c1ccccc1)c1nc(N)nc(-c2noc(-c3ccccn3)n2)n1 [Example 9, N-Methyl-N-phenyl-6-(5-pyridin-2-yl-[1,2,4]oxadiazol-3-yl)-[1,3,5]triazine-2,4-diamine] | 769 nM | 
CN(c1ccccc1)c1nc(N)nc(-c2noc(-c3ccccc3)n2)n1 [Example 10, N-Methyl-N-phenyl-6-(5-phenyl-[1,2,4]oxadiazol-3-yl)-[1,3,5]triazine-2,4-diamine] | 348 nM | 
CN(c1ccccc1)c1nc(N)nc(-c2noc(-c3cccs3)n2)n1 [Example 11, N-Methyl-N-phenyl-6-(5-thiophen-2-yl-[1,2,4]oxadiazol-3-yl)-[1,3,5]triazine-2,4-diamine] | 216 nM | 
CN(c1ccccc1)c1nc(N)nc(-c2noc(-c3ccc(Cl)s3)n2)n1 [Example 12, N-Methyl-6-[5-(5-chloro-thiophen-2-yl)-[1,2,4]oxadiazol-3-yl]-N-phenyl-[1,3,5]triazine-2,4-diamine] | 2320 nM | 
CN(c1ccccc1)c1nc(N)nc(-c2noc(-c3ccc(OC4CCCC4)nc3)n2)n1 [Example 13, 6-[5-(6-Cyclopentoxy-pyridin-3-yl)-[1,2,4]oxadiazol-3-yl]-N-methyl-N-phenyl-[1,3,5]triazine-2,4-diamine] | 4 nM | 
CN(c1nc(N)nc(-c2noc(-c3ccco3)n2)n1)c1ccccc1F [Example 14, N-(2-Fluoro-phenyl)-6-(5-furan-2-yl-[1,2,4]oxadiazol-3-yl)-N-methyl-[1,3,5]triazine-2,4-diamine] | 198 nM | 
CN(c1cccc(F)c1)c1nc(N)nc(-c2noc(-c3ccco3)n2)n1 [Example 15, N-(3-Fluoro-phenyl)-6-(5-furan-2-yl-[1,2,4]oxadiazol-3-yl)-N-methyl-[1,3,5]triazine-2,4-diamine] | 152 nM | 
CN(c1ccccc1)c1nc(N)nc(-c2noc(-c3ccccc3Cl)n2)n1 [Example 23, 6-[5-(2-Chloro-phenyl)-[1,2,4]oxadiazol-3-yl]-N-methyl-N-phenyl-[1,3,5]triazine-2,4-diamine] | 106 nM | 
COc1ccccc1-c1nc(-c2nc(N)nc(N(C)c3ccccc3)n2)no1 [Example 25, 6-[5-(2-Methoxy-phenyl)-[1,2,4]oxadiazol-3-yl]-N-methyl-N-phenyl-[1,3,5]triazine-2,4-diamine] | 47 nM | 
COc1ccc(-c2nc(-c3nc(N)nc(N(C)c4ccccc4)n3)no2)cc1 [Example 26, 6-[5-(4-Methoxy-phenyl)-[1,2,4]oxadiazol-3-yl]-N-methyl-N-phenyl-[1,3,5]triazine-2,4-diamine] | 148 nM | 
CN(c1ccccc1)c1nc(N)nc(-c2noc(-c3cccc(Cl)c3)n2)n1 [Example 35, 6-[5-(3-Chloro-phenyl)-[1,2,4]oxadiazol-3-yl]-N-methyl-N-phenyl-[1,3,5]triazine-2,4-diamine] |  | 44% (10 μM)^b

SMILES | IC50 | Nav 1.7 activity, % at 10 μM
CN(c1ccccc1)c1nc(N)nc(-c2noc(-c3ccc(Cl)cc3)n2)n1 [Example 36, 6-[5-(4-Chloro-phenyl)-[1,2,4]oxadiazol-3-yl]-N-methyl-N-phenyl-[1,3,5]triazine-2,4-diamine] | 165 nM | 
CN(c1ccccc1)c1nc(N)nc(-c2noc(-c3ccoc3)n2)n1 [Example 37, 6-(5-Furan-3-yl-[1,2,4]oxadiazol-3-yl)-N-methyl-N-phenyl-[1,3,5]triazine-2,4-diamine] |  | 50% (10 μM)^b
CCN(c1ccccc1)c1nc(N)nc(-c2noc(-c3nccs3)n2)n1 [Example 38, N-Ethyl-N-phenyl-6-(5-thiazol-2-yl-[1,2,4]oxadiazol-3-yl)-[1,3,5]triazine-2,4-diamine] | 1120 nM | 
CN(c1ccccc1)c1nc(N)nc(-c2noc(N3CCCCC3)n2)n1 [Example 46, N-Methyl-N-phenyl-6-(5-piperidin-1-yl-[1,2,4]oxadiazol-3-yl)-[1,3,5]triazine-2,4-diamine] | 511 nM | 
CN(c1ccccc1)c1nc(N)nc(-c2noc(C3CCOC3)n2)n1 (stereo not drawn) [Example 48] | 4630 nM | 
CN(c1ccccc1)c1nc(N)nc(-c2noc(-c3cncs3)n2)n1 [Example 52, N-Methyl-N-phenyl-6-(5-thiazol-5-yl-[1,2,4]oxadiazol-3-yl)-[1,3,5]triazine-2,4-diamine] | 909 nM | 
CN(c1ccccc1)c1nc(N)nc(-c2noc(-c3cncc(N)c3)n2)n1 [Example 54, 6-[5-(5-Amino-pyridin-3-yl)-[1,2,4]oxadiazol-3-yl]-N-methyl-N-phenyl-[1,3,5]triazine-2,4-diamine] | 2220 nM | 
CN(c1ccccc1)c1nc(N)nc(-c2noc(-c3ccn[nH]3)n2)n1 [Example 61, N-Methyl-N-phenyl-6-[5-(2H-pyrazol-3-yl)-[1,2,4]oxadiazol-3-yl]-[1,3,5]triazine-2,4-diamine] | 561 nM | 
COc1cccc(F)c1-c1nc(-c2nc(N)nc(N(C)c3ccccc3)n2)no1 [Example 81, 6-[5-(2-Fluoro-6-methoxy-phenyl)-[1,2,4]oxadiazol-3-yl]-N-methyl-N-phenyl-[1,3,5]triazine-2,4-diamine] | 21 nM | 
COC(=O)c1ccc(-c2nc(-c3nc(N)nc(N(C)c4ccccc4)n3)no2)s1 [Example 82, 5-{3-[4-amino-6-(methyl-phenyl-amino)-[1,3,5]triazin-2-yl]-[1,2,4]oxadiazol-5-yl}-thiophene-2-carboxylic acid methyl ester] | 195 nM | 
CN(c1nc(N)nc(-c2noc(-c3ccco3)n2)n1)c1cc(F)ccc1F [Example 104, N-(2,5-Difluoro-phenyl)-6-(5-furan-2-yl-[1,2,4]oxadiazol-3-yl)-N-methyl-[1,3,5]triazine-2,4-diamine] | 93 nM | 
Cc1ccc(F)c(N(C)c2nc(N)nc(-c3noc(-c4ccco4)n3)n2)c1 [Example 105, N-(2-Fluoro-5-methyl-phenyl)-6-(5-furan-2-yl-[1,2,4]oxadiazol-3-yl)-N-methyl-[1,3,5]triazine-2,4-diamine] | 59 nM | 
CN(c1nc(N)nc(-c2noc(-c3ccco3)n2)n1)c1cccc(Cl)c1F [Example 106, N-(3-Chloro-2-fluoro-phenyl)-6-(5-furan-2-yl-[1,2,4]oxadiazol-3-yl)-N-methyl-[1,3,5]triazine-2,4-diamine] | 82 nM | 
Nc1nc(Nc2cc(Cl)ccc2F)nc(-c2noc(-c3ccco3)n2)n1 [Example 108, N-(5-Chloro-2-fluoro-phenyl)-6-(5-furan-2-yl-[1,2,4]oxadiazol-3-yl)-[1,3,5]triazine-2,4-diamine] | 235 nM | 
Nc1nc(Nc2cccc(Cl)c2F)nc(-c2noc(-c3ccco3)n2)n1 [Example 111, N-(3-Chloro-2-fluoro-phenyl)-6-(5-furan-2-yl-[1,2,4]oxadiazol-3-yl)-[1,3,5]triazine-2,4-diamine] | 54 nM | 
Cc1cccc(Nc2nc(N)nc(-c3noc(-c4ccco4)n3)n2)c1F [Example 112, N-(2-Fluoro-3-methyl-phenyl)-6-(5-furan-2-yl-[1,2,4]oxadiazol-3-yl)-[1,3,5]triazine-2,4-diamine] | 87 nM | 
